In publication PMC6753678, “Fueling Open Innovation for Malaria Transmission-Blocking Drugs: Hundreds of Molecules Targeting Early Parasite Mosquito Stages” (Frontiers in Microbiology, 2019):
pIC50: −log10 of the molar value. Read-outs that look alike come from different tables or passages of the source.

Assays:
[1] = tested on: P. falciparum late stage (stages IV-V) gametocytes; assay: P. falciparum late stage gametocyte ATP depletion assay (Pf GC-ATP); conditions: 1: YES; 0: NO
[2] = tested on: HepG2 cells; assay: HepG2 cytotoxicity assay
How it was run: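 Percent inhibition derived from fluorescent viability readout, normalised to DMSO (negative) and 50 μM doxorubicin (positive). Compound incubation lasted 48 h at 37°C, 5% CO2, with 2,500 HepG2 cells/well in MEM plus 10% FBS and 1% NEAA.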

[3] = tested on: HepG2 cells; conditions: cited from earlier work
[4] = tested on: P. falciparum female gametocytes; design: method as in Miguel-Blanco et al 2017; conditions: ref Miguel-Blanco et al 2017, read-out: Pf FGAA IC50, cited from earlier work
[5] = tested on: P. falciparum female gametocytes; assay: P. falciparum female gametogenesis assay (Pf FGAA); conditions: 1: YES; 0: NO
[6] = tested on: P. falciparum late stage (stages IV-V) gametocytes; design: method as in Almela et al 2016; conditions: ref Almela et al 2016, read-out: Pf GCT ATP IC50, cited from earlier work
[7] = HepG2 cytotoxicity unified across the three screens
[8] = value reported with the Pf FGAA screen, ref Miguel-Blanco et al 2017
[9] = value reported with the Pf GCT ATP screen, ref Almela et al 2016

Row | Compound | Is compound selective in assay? Pf GC-ATP active? [1] | Unified cytotox [2, 7] | HepG2 cytoxicity [3, 8] | HepG2 cytoxicity [3, 9] | pIC50 ([4]; TCAMS screen comparison) | Is compound selective in assay? Pf FGAA active? [5] | pIC50 ([6]; TCAMS screen comparison) | Unified cytotox ([2]; HepG2 values of the three screens unified) | HepG2 cytoxicity (Pf GCT ATP screen) ([3]; HepG2, ref Almela et al 2016) | HepG2 cytoxicity (Pf FGAA screen) ([3]; HepG2, ref Miguel-Blanco et al 2017) | pIC50 [4] | pIC50 [6]
1 | CN(C)CCNCc1ccc(-c2ccc3c(Nc4ccc(Oc5ccccc5)cc4)ccnc3c2)o1 [TCMDC-138399] | 1 (1: YES) | 6.63 µM | 5.69 µM | 7.57 µM | 5.81 | 0 (0: NO) | 6.48 |  |  |  |  | 
2 | CN(CCCCN)Cc1ccc(-c2ccc(Cl)cc2)cc1 [TCMDC-140123] | 0 (0: NO) | 3.77 µM | 3.55 µM | 3.99 µM | 5.80 | 0 (0: NO) | 6.39 |  |  |  |  | 
3 | CCn1c(-c2nonc2N)nc2c(-c3cccc(NC(=O)Nc4cccc(Cl)c4)c3)ncc(OCCCN)c21.O=C(O)C(F)(F)F [TCMDC-136193] | 1 (1: YES) | 47.43 µM | 80.36 µM | 14.5 µM | 5.93 | 1 (1: YES) | 5.66 |  |  |  |  | 
4 | CS(=O)(=O)O.FC(F)(F)COc1ccc(CNCCCCCCNCc2ccc(OCC(F)(F)F)c3ccccc23)c2ccccc12 [TCMDC-137853] | 1 (1: YES) | 2.73 µM | 2.46 µM | 3 µM | 6.20 | 0 (0: NO) | 7.26 |  |  |  |  | 
5 | CC(C)(C)c1ccc(CN2CCC(CNC(=O)c3cc(-c4ccccc4C(F)(F)F)cs3)C2)cc1.O=C(O)C(F)(F)F (stereo not shown) [TCMDC-134441] | 1 (1: YES) | 8.09 µM | 9.77 µM | 6.4 µM | 6.16 | 1 (1: YES) | 6.51 |  |  |  |  | 
6 | CN1CCN(CCNc2c3ccccc3nc3c2ccc2ccccc23)CC1.Cl [TCMDC-137723] | 1 (1: YES) | 5.84 µM | 5.07 µM | 6.6 µM | 5.46 | 0 (0: NO) | 6.41 |  |  |  |  | 
7 | CS(=O)(=O)O.FC(F)(F)COc1ccc2ccccc2c1CCNCCCCNCCc1c(OCC(F)(F)F)ccc2ccccc12 [TCMDC-137317] | 0 (0: NO) | 2.70 µM | 2.09 µM | 3.3 µM | 6.00 | 0 (0: NO) | 5.86 |  |  |  |  | 
8 | Fc1ccc2[nH]c(-c3ccc(-c4ccc(CN5CCC(CCN6CCCCC6)CC5)cc4)cc3)nc2c1.O=C(O)C(F)(F)F [TCMDC-133924] | 1 (1: YES) | 4.62 µM | 3.94 µM | 5.3 µM | 5.77 | 0 (0: NO) | 6.34 |  |  |  |  | 
9 | COc1cc2ccccc2cc1CCNCCCCNCCc1cc2ccccc2cc1OC.CS(=O)(=O)O [TCMDC-137944] | 1 (1: YES) | 2.53 µM | 1.66 µM | 3.39 µM | 6.21 | 0 (0: NO) | 6.96 |  |  |  |  | 
10 | COc1ccc(-c2cnc3[nH]cc(-c4ccncc4)c3c2)cc1OC [TCMDC-135853] | 0 (0: NO) | 7.44 µM | 11.79 µM | 3.1 µM | 5.65 | 0 (0: NO) | 6.05 |  |  |  |  | 
11 | CCCCCCCN1CC[C@@H](CCCc2ccnc3ccc(OCCN4CCNCC4)cc23)[C@@H](CC)C1.Cl [TCMDC-139817] | 1 (1: YES) | 5.82 µM | 4.90 µM | 6.75 µM | 5.73 | 0 (0: NO) | 6.24 |  |  |  |  | 
12 | CN1CCN(CCCNCc2cccc(-c3ccc(CNCCc4ccccc4)cc3)c2)CC1 [TCMDC-140643] | 1 (1: YES) | 13.08 µM | 7.92 µM | 18.24 µM | 5.72 | 0 (0: NO) | 6.39 |  |  |  |  | 
13 | Cc1cc(OCCN2CCCCC2)ccc1NC(=O)c1cccc2c(=O)n(Cc3ccc(Cl)cc3)cnc12 [TCMDC-136727] | 0 (0: NO) | 4.45 µM | 4.17 µM | 4.73 µM | 5.85 | 0 (0: NO) | 6.02 |  |  |  |  | 
14 | COc1ccc(C[C@H](N)C(=O)N[C@H]2[C@@H](O)[C@H](n3cnc4c(N(C)C)ncnc43)O[C@@H]2CO)cc1 [TCMDC-123493] | 0 (0: NO) | 2.37 µM | 1.80 µM | 2.95 µM | 6.54 | 0 (0: NO) | 6.25 |  |  |  |  | 
15 | O=C(O)C(F)(F)F.O=S(=O)(NCCN1CCCC1)c1cccc(-c2ccc(CNC3Cc4ccccc4C3)cc2)c1 [TCMDC-132241] | 0 (0: NO) | 7.23 µM | 6.46 µM | 8 µM | 5.51 | 0 (0: NO) | 5.67 |  |  |  |  | 
16 | Cc1c(Cl)cccc1N=C(S)NN=Cc1ccccn1 [TCMDC-125487] | 1 (1: YES) | 100.00 µM | >100 µM | >25 µM | 7.55 | 1 (1: YES) | 6.57 |  |  |  |  | 
17 | COc1ccc(CCNCCCCCCNCCc2ccc(Cl)cc2)c(Cl)c1OC.Cl [TCMDC-131272] | 1 (1: YES) | 5.87 µM | 5.54 µM | 6.2 µM | 6.08 | 0 (0: NO) | 6.59 |  |  |  |  | 
18 | C[C@H](Cc1ccc(C[C@@H](C)NC[C@H](O)c2cccc(Cl)c2)cc1)NC[C@H](O)COc1ccccc1.Cl [TCMDC-131549] | 0 (0: NO) | 4.94 µM | 5.19 µM | 4.7 µM | 5.86 | 0 (0: NO) | 6.04 |  |  |  |  | 
19 | CCOc1cc(CNCCCCCCNCc2cc(OCC)c(OCC)c3ccccc23)c2ccccc2c1OCC.CS(=O)(=O)O [TCMDC-137939] | 0 (0: NO) |  |  |  |  | 0 (0: NO) |  | 2.35 µM | 2.7 µM | 2.00 µM | 5.75 | 6.12
